Results reported in patent publication US20260021186A1, “Fatty Acid-D-Amino Acid Peptides Conjugates as Anaplerotic Compounds for Use in Treating Propionic Acidemia, Methylmalonic Acidurias, and Energy Metabolic Disorders” (University of Pittsburgh - Of the Commonwealth System of …, priority 2022, published 2026).

Key:
Format in all cases: cell-based, human
[1] = system: ETC components (UQCRC2, COXII, NDUFB8) in PA cell line Fb859 and MMA cell line Fb857; assay: Detection of ETC components by western blots; details: FIG. 11; 72 h treatment
Method: FIG. 11 are western blots showing correction in the signals of Complex III subunit Core 2 48-kDa (UQCRC2), Complex IV subunit II 22-kDa (COXII), and Complex I subunit NDUFB8 18-kDa that is most pronounced in the propionic acidemia (PA) cell line Fb859 compared to the methylmalonic aciduria (MMA) cell line Fb857.
Detection of ETC components by western blots: Same as above, media A for control, and media B for untreated and treated cells in T75 flasks. Amounts of compounds were added appropriately directly to cell culture media when the cultures were about 85-90 confluent. The cultures were allowed to grow for 72 h at 37° C./5% CO2, and then harvested. Harvested cell pellets were stored at −80° C. until immune and enzymatic assay and western blot analyses of OXPHOS subunits. One to 1.5 ml media samples were also stored at −80° C. for.

[2] = system: Fb859 propionic acidemia patient fibroblasts; assay: Lysine succinylation of cellular proteins by immunofluorescence confocal microscopy; details: media without glucose
Method: FIG. 7 are immunocytochemistry photomicrographs showing the effect of incubation of Fb859 propionic acidemia patient fibroblasts on for lysine succinylation with 90 μM of PMA010, 90 μM of PMA011, 90 μM of succinic acid, 90 μM of methylmalonic acid, or 90 μM adipic acid for 72 hours. Immunocytochemistry of the fibroblast cells were stained for anti-succinyllysine antibody, anti-MTCO1 antibody and DAPI for nuclei. Instrument: Zeiss LSM 710 confocal Microscopy. Magnification: 40×. The cells were grown in glass coverslips at a seeding density of 3-5×10^4 cells. The media for untreated and treatment groups had no glucose, glutamine or pyruvate, and lipid stripped FBS was included instead of regular FBS. Scale bar=20 μm.
FIGS. 8A-8F are a comparison of lysine succinylation of cellular proteins visualized by immunofluorescence confocal microscopy in a Propionic Acidemia (Fb859) patient untreated (FIG. 8A) and treated with 30 μM and 90 μM of D-Serine (FIG. 8B), 30 µM and 90 μM of PMA007 (FIG. 8C), or 30 μM and 90 μM of PMA010 (FIG. 8D). Scale bar=20 μm. FIG. 8E is a bar graph showing the quantification of the percent change in lysine succinylation (green) signal, from the immunofluorescence confocal micrographs of FIGS. 8B and 8C, in response to the treatment of D-serine and PMA007. FIG. 8F is a bar graph showing the quantification of the percent change in lysine succinylation (green) signal, from the immunofluorescence confocal micrographs of a D-Serine repeat experiment and FIG. 8D, in response to the treatment of D-serine and PMA010. Asterisks indicate statistical significance calculated at the raw data level (n=3); **P<0.01, ***P<0.001, ****P<0.0001 statistically compared to untreated. Statistical analysis used T-test.
Immunohistochemistry: Patient cells were grown in glass coverslips at a seeding density of 3-5×10^4 cells. The media for untreated and treatment groups had no glucose, glutamine or pyruvate, and lipid stripped FBS was included instead of regular FBS. NIH Image J software was used to quantify the fluorescence intensity from 50-60 cells per group. Immunocytochemistry of propionic acidemia patient (Fb859) fibroblast cells lines stained for anti-succinyllysine (Green), anti-MTCO1 (Red), or anti-TOMM20 antibodies, and DAPI (Blue) for nuclei. Instrument: Zeiss LSM 710 confocal Microscopy. Statistical analysis used Tukey multiple range test. ****P<0.0001, [PMA010] (90 μM) treatment group statistically compared to control cells grown in the presence of regular complete DMEM media, untreated and [PMA010] (30 μM) cells grown in the absence of glucose/pyruvate/L-glutamine.

[3] = system: propionic acidemia (PA) fibroblast cell line Fb900; assay: Mitochondrial ROS production using MitoSOX Red; details: FIG. 15C; 180 and 640 μM, 72 h
Description: (§1) FIGS. 15A-15D are graphs showing the measurement of mitochondrial reactive oxygen species (ROS) production using MitoSOX Red as Superoxide indicator probe. FIG. 15A is a graph showing control fibroblast cell line FB826 treated with PMA010, PMA011, PMA019, and PMA020. FIG. 15B is a graph showing propionic acidemia (PA) patients' fibroblast cell linc Fb859 treated with PMA010, PMA011, PMA019, and PMA020. FIG. 15C is a graph showing propionic acidemia (PA) patients' fibroblast cells line Fb900 treated with PMA010, PMA011, PMA019, and PMA020. FIG. 15D is a graph comparing ROS production levels in response to treatment with PMA011 in Control fibroblast cell line (FB826), PA fibroblast cell line (Fb900), and glutaric acidemia II (GA II) patient fibroblast cell lines (Fb930, Fb961). Data are the average of readings from 3 replicate wells.
(§2) Measurement of mitochondrial ROS production using MitoSOX Red as superoxide indicator probe: control (Fb826), PA patient (Fb859, Fb900) and GA II patient (Fb930, Fb961) fibroblasts were grown in regular DMEM media containing glucose/pyruvate/L-glutamine until 85-90% confluency. The cells were harvested and seeded at a concentration of 25,000 cells/80 μl (n=3) in cell culture treated black wall 96 well microplate with clear bottom in regular DMEM media containing glucose/pyruvate/L-glutamine and incubated overnight at 37° C. in a 5% CO2 incubator. Following day, the culture media was replaced in designated wells with the following for 72 h: 150 μl regular DMEM (Glucose+10% FBS+sodium pyruvate+L-glutamine+0.5 mM carnitine). 150 μl of Regular DMEM containing experimental compounds (180 and 640 μM) PMA010 or PMA011 or PMA 019 and (640 μM) PMA020 in control and propionic acidemia patient fibroblasts. 150 μl of regular DMEM containing experimental compounds (600 and 1200 μM) PMA011 in Fb930 and (1200 μM) PMA011 in Fb961 GA II patient fibroblast. After 72 h incubation the wells were washed twice with 150 μL of Seahorse XFDMEM base media and in respective designated wells the following Assay buffer (150 μL of seahorse XFDMEM base media containing glucose, sodium pyruvate and Glutamine) was used along with 5 μM MitoSOX reagent and incubated at 37° C. non-CO2 incubator for 15 minutes protected from light. After 15 minutes incubation the cells were washed twice with 150 μL of seahorse XFDMEM base media and replaced with measurement buffer, which is same as the wash buffer. The fluorescence was monitored with excitation at 520 nm and emission at 580 nm. Finally, cells were lysed, and protein content was determined. Data is normalized to protein concentration and fluorescence is reported as MitoSOX Red (AFU)/mg protein.

[4] = system: control fibroblast cell line FB826; assay: Mitochondrial ROS production using MitoSOX Red; details: FIG. 15A; 180 and 640 μM, 72 h
Description: as §1, §2

Structure (SMILES): C[C@@H](NC(=O)CCCCC(=O)O)C(=O)N[C@H](Cc1c[nH]cn1)C(=O)O [PMA010, 6-(((R)-1-(((R)-1-carboxy-2-(1H-imidazol-4-yl)ethyl)amino)-1-oxopropan-2-yl)amino)-6-oxohexanoic acid]
- correction in the signals of UQCRC2, COXII and NDUFB8 (western blot) [1]: better effect compared to PMA007
- lysine succinylation (green staining) compared to untreated cells ([2]; FIG. 7, 90 μM, 72 hours, glutamine or pyruvate, lipid stripped FBS): obvious increase in the green staining
- lysine succinylation (green) signal ([2]; FIGS. 8A-8F, 30 μM and 90 μM, pyruvate, glutamine, stripped FBS): Restoration of lysine succinylation (green) signal
- ROS detected (MitoSOX Red) [3]: significant decrease in ROS
- ROS detected (MitoSOX Red) [4]: significant decrease in ROS
